According to patent US20260263553A1, “METHODS OF TREATING A LOCALIZED INFECTION WITH LOCALLY ADMINISTERED ANTIBIOTICS” (Osteal Therapeutics, Inc., priority 2023, published 2026):

How the values were obtained:
[1] = in vivo; cited from earlier work
[2] = instillation of 50,000-100,000 mcg/mL once or twice daily into the joint space; cited from earlier work
[3] = Serum concentrations during 7-day local irrigation of the infected joint (PJI clinical investigation); assay type: in vivo, human; conditions: daily dose 2.6 g at 2,500 mcg/mL by irrigation for 7 days
Method: Irrigation of vancomycin and tobramycin within the manufacturer's recommended systemic dose for the treatment of PJI has been investigated clinically. A daily dose of 2.6 g vancomycin at a concentration of 2,500 mcg/mL and a daily dose of 80 mg of tobramycin at 1,600 mcg/mL were administered by irrigation to the infected joint for 7 days following stage one surgery of a two-stage exchange arthroplasty treatment. […] The serum concentrations of vancomycin over a 7-day period for 37 human subjects who received local irrigation of 50 cc at a concentration of 2,500 mcg/mL intermittently are shown in FIG. 6.

common PJI organisms = test: Minimum biofilm eradication concentration (MBEC); assay type: cell-based; conditions: multiple common PJI organisms
Text: The formation of biofilm, a frequent occurrence in infected wounds with a medical device in situ such as PJI, BII, or FRI, begins early after onset of infection and provides an additional mechanism of resistance to antibiotic therapy. It is well established that the organisms in a mature biofilm structure, formed in a matter of days or a few weeks, are not susceptible to common antibiotics at the typical MIC of planktonic counterparts. […] The concentration at which eradication of an organism in a biofilm is accomplished is known as the minimum biofilm eradication concentration (MBEC) for the specific antimicrobial agent and organism tested. MBEC is not the same for all antimicrobial agents used to treat the same organism, nor is it the same for one antimicrobial agent applied to different strains or organisms.

Compound | maximum safe level, peak serum concentrations [1] | sustained trough levels associated with toxicity [1] | maximum safe level, trough serum concentrations [1] | serum concentrations [2] | serum concentration levels [3] | MBEC (common PJI organisms)
NC[C@H]1O[C@H](O[C@H]2[C@H](O)[C@@H](O[C@H]3O[C@H](CO)[C@@H](O)[C@H](N)[C@H]3O)[C@H](N)C[C@@H]2N)[C@H](N)C[C@@H]1O [tobramycin] | 10 µg/mL | > 2 µg/mL |  |  |  | 
CN[C@H](CC(C)C)C(=O)N[C@H]1C(=O)N[C@@H](CC(N)=O)C(=O)N[C@H]2C(=O)N[C@H]3C(=O)N[C@H](C(=O)N[C@H](C(=O)O)c4cc(O)cc(O)c4-c4cc3ccc4O)[C@H](O)c3ccc(c(Cl)c3)Oc3cc2cc(c3O[C@@H]2O[C@H](CO)[C@@H](O)[C@H](O)[C@H]2O[C@H]2C[C@](C)(N)[C@H](O)[C@H](C)O2)Oc2ccc(cc2Cl)[C@H]1O [vancomycin] |  |  | 30 µg/mL | serum concentrations exceeding safe limits in multiple patients | well below the safe serum concentration | greater than 4,000 mcg/mL
